Assay results published in patent US6815439B2, “Substituted aza-oxindole derivatives” (SmithKline Beecham Corporation, priority 1999, dated 2004).

Tests used:
Format in all cases: biochemical
CDK2 = CDK2 (Homo sapiens, UniProt P24941); assay: CDK2 substrate phosphorylation assay; details: kinase inhibition, Table 3
Protocol: Cyclin dependent protein kinase assays utilized the peptides Biotin-aminohexyl-[…] and Biotin-aminohexyl-[…]-NH2 as phosphoryl group acceptors. CDK2 was expressed utilizing a baculovirus expression system and was partially purified to comprise 20-80% of total protein, with no detectable competing reactions present. Typically, assays were performed by incubating enzyme (0.2-10 nM), with and without inhibitor, one of the two peptide substrates ([…]), [γ-^32P]ATP ([…]), and 10-20 mM Mg^2+ for periods of time generally within the range 10-120 min. Reactions were terminated with 0.2-2 volumes of either 20% acetic acid or 50-100 mM EDTA buffered to pH 7 (substrate consumption <20%). The buffer employed in enzyme assays was either 30 mM HEPES 7.4 containing 0.15 M NaCl and 5% DMSO, the buffer 50 mM MOPS 7.0 containing 0.15 M NaCl and 5% DMSO, or the buffer 100 mM HEPES pH 7.5 containing 0.1 mg/mL BSA and 5% DMSO. Inhibitors were diluted in 100% DMSO prior to addition into the assay. Detection of peptide phosphorylation was accomplished by scintillation counting following either collection of peptide onto phosphocellulose filters (for reactions stopped with acetic acid), collection of peptide in wells of 96 well plates coated with Streptavidin (Pierce) (reactions were stopped with EDTA), or addition of Avidin coated Scintillant impregnated beads (Scintillation Proximity Assays from Amersham; reactions were stopped with EDTA).

VEGFR-2 = molecular target: T1, VEGFR-2 (Homo sapiens, UniProt P35968); assay: VEGFR-2 kinase assay; details: kinase inhibition, Table 3; read-out: VEGFR2 (IC50)
T1 construct: The kinase domain of the enzyme was purified to homogeneity from a baculovirus expression system; made in house
T1 sequence (P35968 834-1162 limits assumed, species assumed): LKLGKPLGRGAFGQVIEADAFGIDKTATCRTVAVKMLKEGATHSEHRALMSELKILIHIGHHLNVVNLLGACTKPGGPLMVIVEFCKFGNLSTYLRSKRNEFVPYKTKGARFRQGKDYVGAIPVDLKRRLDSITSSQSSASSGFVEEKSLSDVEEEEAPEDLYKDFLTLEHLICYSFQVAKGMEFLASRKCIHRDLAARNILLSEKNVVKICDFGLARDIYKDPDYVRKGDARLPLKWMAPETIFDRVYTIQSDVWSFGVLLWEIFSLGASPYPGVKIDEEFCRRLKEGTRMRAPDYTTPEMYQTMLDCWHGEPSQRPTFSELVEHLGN
Protocol: The peptide substrate used in the VEGFR-2 assay was biotin-aminohexyl-[…]-NH2. The kinase domain of the enzyme was purified to homogeneity from a baculovirus expression system. The enzyme was preactivated on ice for 15 min in the presence of 100 μM ATP and 20 mM MgCl2, and stored at −80° C. until needed for assay. The activated enzyme was diluted to 0.4 nM into a 60 μl reaction containing 100 mM HEPES, pH 7.5, 5 μM ATP, 10 mM MgCl2, 5 μM peptide, 0.1 mM DTT, 0.05 mg/ml BSA, and an inhibitor at varying concentrations. The controls were reactions in the presence (negative controls) or absence (positive controls) of 50 mM EDTA. Reactions were incubated for 30 min at room temperature, and then quenched by the addition of EDTA to 60 mM in 210 μl. The quenched samples (190 μl) were transferred to a neutravidin-coated plate (Pierce) and incubated at room temperature for 40 min to allow biotinylated peptide to bind to the neutravidin. The unbound components of the reaction were removed by washing with a plate washer, then 200 μl HRP-PY20 anti-phosphotyrosine antibody conjugate was added to each well. After incubation for 40 min, the plate was washed to remove any unbound anitbody. A HRP substrate, K-blue (Neogen) was added and the reaction was quenched with Red Stop (Neogen) after 20 min. The absorbance of the wells was read at A650 in a plate reader. IC50 values were obtained by fitting raw data to A650=VMAX*(1−[I]/IC50+[I])))+b, where b is background.

c-fms = molecular target: T2, c-fms (Homo sapiens, UniProt P07333); assay: c-fms protein kinase assay; details: kinase inhibition, Table 3
T2 construct: The c-fms intracellular domain was expressed from a baculovirus expression system; GST (N); made in house
T2 sequence (P07333 539-972 limits assumed): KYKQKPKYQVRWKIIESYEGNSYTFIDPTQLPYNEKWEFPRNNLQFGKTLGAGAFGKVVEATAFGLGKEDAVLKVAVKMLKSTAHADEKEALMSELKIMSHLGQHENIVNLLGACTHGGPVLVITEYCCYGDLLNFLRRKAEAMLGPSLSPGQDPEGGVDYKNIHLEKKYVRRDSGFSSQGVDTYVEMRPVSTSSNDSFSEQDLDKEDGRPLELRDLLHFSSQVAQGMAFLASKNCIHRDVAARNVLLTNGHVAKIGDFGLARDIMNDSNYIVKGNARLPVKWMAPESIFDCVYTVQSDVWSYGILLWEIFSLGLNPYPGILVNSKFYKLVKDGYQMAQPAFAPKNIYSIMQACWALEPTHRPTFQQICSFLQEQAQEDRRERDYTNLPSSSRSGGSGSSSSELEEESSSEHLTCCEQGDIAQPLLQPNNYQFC
Protocol: c-fms protein kinase assays utilized the peptide substrate, biotin-[…]-NH2 as the phosphoryl group acceptor. The c-fms intracellular domain was expressed from a baculovirus expression system, as an amino-terminal GST fusion protein, and purified to homogeneity using Glutathione agarose from Sigma Chemical Co. Maximum activation of the enzyme was achieved by preactivation at room temperature for 120 min in the presence of 100 μM ATP and 15 mM MgCl2, This enzyme stock was diluted to 150 nM prior to using in the assay. Typically assays were performed in white, opaque, 96-well plates in a 45 ul assay volume including 15 ul 6% DMSO, with or without compounds, 15 ul of the preactivated, diluted enzyme, and 15 ul of a substrate mixture. Reactions contained 50 mM HEPES, pH 7.5, 1.7 μM ATP, 15 mM MgCl2, 3 μM peptide, 2.5 mM DTT, 50 mM NaCl and 0.15 uCi/assay [□□^32P]ATP. The controls were reactions in the presence (negative controls) or absence (positive controls) of 50 mM EDTA. Reactions were allowed to proceed for 90 min at room temperature. The reaction products were quantified using Scintillation Proximity technolgy. The reactions were quenched by the addition of 200 ul of a solution containing 0.3 mg streptavidin SPA beads from Amersham, 50 mM EDTA, 0.1% TX-100, 50 uM ATP, in PBS, pH7.2 (phosphate buffered solution). Plates were sealed and counted in a Packard Topcount scintillation counter. IC50 values were obtained by fitting raw data to the equation y=Vmax*(1−(x/(k+x))).

Row | Compound | IC50 (CDK2) [µM] | IC50 (VEGFR-2) [µM] | IC50 (c-fms) [µM]
1 | NS(=O)(=O)c1ccc(NC=C2C(=O)Nc3ccncc32)cc1 [Example 1, 4-{[(2-Oxo-1,2-dihydro-3H-pyrrolo[3,2-c]pyridin-3-ylidene)methyl]amino}benzenesulfonamide] | 0.01 to 0.1 | 1 to 10 | 
2 | NS(=O)(=O)c1ccc(NC=C2C(=O)Nc3cnccc32)cc1 [Example 2, 4-{[(2-Oxo-1,2-dihydro-3H-pyrrolo[2,3-c]pyridin-3-ylidene)methyl]amino}benzenesulfonamide] | 0.01 to 0.1 |  | 
3 | O=C1Nc2cccnc2C1=CNc1ccc2cn[nH]c2c1 [Example 3, 3-[(1H-Indazol-6-ylamino)methylidene]-1H-pyrrolo[3,2-b]pyridin-2-one] |  | 1 to 10 | 
4 | O=C1Nc2cccnc2C1=CNc1ccc2ncccc2c1 [Example 4, 3-[(6-Quinolinylamino)methylidene]-1,3-dihydro-2H-pyrrolo[3,2-b]pyridin-2-one] |  | 1 to 10 | 
5 | NS(=O)(=O)c1ccc(NC=C2C(=O)Nc3ncccc32)cc1 [Example 5, 4-{[(2-Oxo-1,2-dihydro-3H-pyrrolo[2,3-b]pyridin-3-ylidene)methyl]amino}benzenesulfonamide] | 0.1 to 1 | 1 to 10 | 
6 | O=C1Nc2ncccc2C1=CNc1ccc2ncccc2c1 [Example 7, 3-[(6-Quinolinylamino)methylidene]-1,3-dihydro-2H-pyrrolo[2,3-b]pyridin-2-one] |  | 1 to 10 | 
7 | NS(=O)(=O)c1ccc(NC=C2C(=O)Nc3ncc(-c4ccccc4)cc32)cc1 [Example 8, 4-{[(2-Oxo-5-phenyl-1,2-dihydro-3H-pyrrolo[2,3-b]pyridin-3-ylidene)methyl]amino}benzenesulfonamide] | 1 to 10 |  | 
8 | O=C1Nc2ncc(-c3ccccc3)cc2C1=CNc1ccc2cn[nH]c2c1 [Example 9, 3-[(1H-Indazol-6-ylamino)methylidene]-5-phenyl-1H-pyrrolo[2,3-b]pyridin-2-one] |  |  | 1 to 10
9 | O=C1Nc2ncc(-c3ccccc3)cc2C1=CNc1ccc2ncccc2c1 [Example 10, 5-Phenyl-3-[(6-quinolinylamino)methylidene]-1,3-dihydro-2H-pyrrolo[2,3-b]pyridin-2-one] |  |  | 1 to 10
10 | NS(=O)(=O)c1ccc(NC=C2C(=O)Nc3ncc(-c4ccco4)cc32)cc1 [Example 11, 4-({[5-(2-Furyl)-2-oxo-1,2-dihydro-3H-pyrrolo[2,3-b]pyridin-3-ylidene]methyl}amino)benzenesulfonamide] | 0.01 to 0.1 | 1 to 10 | 0.1 to 1
11 | O=C1Nc2ncc(-c3ccco3)cc2C1=CNc1ccc2ncccc2c1 [Example 13, 5-(2-Furyl)-3-[(6-quinolinylamino)methylidene]-1,3-dihydro-2H-pyrrolo[2,3-b]pyridin-2-one] |  | 1 to 10 | 1 to 10
12 | O=C1Nc2ncc(-c3ccsc3)cc2C1=CNc1ccc2cn[nH]c2c1 [Example 15, 3-[(1H-Indazol-6-ylamino)methylidene]-5-(3-thienyl)-1,3-dihydro-2H-pyrrolo[2,3-b]pyridin-2-one] | 0.1 to 1 | 1 to 10 | 1 to 10
13 | O=C1Nc2ncc(-c3ccsc3)cc2C1=CNc1ccc2ncccc2c1 [Example 16, 3-[(6-Quinolinylamino)methylidene]-5-(3-thienyl)-1,3-dihydro-2H-pyrrolo[2,3-b]pyridin-2-one] |  | 1 to 10 | 0.1 to 1
14 | O=C1Nc2nc(Cl)ccc2C1=CNc1ccc2cn[nH]c2c1 [Example 21, 6-Chloro-3-[(1H-indazol-6-ylamino)methylidene]-1,3-dihydro-2H-pyrrolo[2,3-b]pyridin-2-one] | 0.1 to 1 | 0.1 to 1 | 1 to 10
15 | O=C1Nc2nc(Cl)ccc2C1=CNc1ccc2ncccc2c1 [Example 22, 6-Chloro-3-[(6-quinolinylamino)methylidene]-1,3-dihydro-2H-pyrrolo[2,3-b]pyridin-2-one] |  | 1 to 10 | 1 to 10
16 | CCOC(=O)c1cnc2c(c1)C(=CNc1ccc3ncccc3c1)C(=O)N2 [Example 25, Ethyl 2-oxo-3-[(6-quinolinylamino)methylidene]-2,3-dihydro-1H-pyrrolo[2,3-b]pyridine-5-carboxylate] | 0.1 to 1 | 0.1 to 1 | 

The next lines start with the values.

Row | IC50 (CDK2) [µM] | IC50 (VEGFR-2) [µM] | IC50 (c-fms) [µM] | Compound
17 |  | 0.1 to 1 | 1 to 10 | O=C1Nc2ncccc2C1=CNc1ccc2cn[nH]c2c1 [Example 6, 3-[(1H-Indazol-6-ylamino)methylidene]-1H-pyrrolo[2,3-b]pyridin-2-one]
18 | 1 to 10 | 0.1 to 1 | 1 to 10 | O=C1Nc2ncc(-c3ccco3)cc2C1=CNc1ccc2cn[nH]c2c1 [Example 12, 5-(2-Furyl)-3-[(1H-indazol-6-ylamino)methylidene]-1H-pyrrolo[2,3-b]pyridin-2-one]
19 | 0.1 to 1 | 0.1 to 1 | 0.1 to 1 | NS(=O)(=O)c1ccc(NC=C2C(=O)Nc3ncc(-c4ccsc4)cc32)cc1 [Example 14, 4-({[2-Oxo-5-(3-thienyl)-1,2-dihydro-3H-pyrrolo[2,3-b]pyridin-3-ylidene]methyl}amino)benzenesulfonamide]
20 | 0.01 to 0.1 | 0.1 to 1 | 1 to 10 | NS(=O)(=O)c1ccc(NC=C2C(=O)Nc3ncc(Br)cc32)cc1 [Example 17, 4-{[(5-Bromo-2-oxo-1,2-dihydro-3H-pyrrolo[2,3-b]pyridin-3-ylidene)methyl]amino}benzenesulfonamide]
21 | 0.01 to 0.1 | 0.1 to 1 | 1 to 10 | O=C1Nc2ncc(Br)cc2C1=CNc1ccc2cn[nH]c2c1 [Example 18, 5-Bromo-3-[(1H-indazol-6-ylamino)methylidene]-1,3-dihydro-2H-pyrrolo[2,3-b]pyridin-2-one]
22 | 0.01 to 0.1 | 0.1 to 1 | 1 to 10 | O=C1Nc2ncc(Br)cc2C1=CNc1ccc2ncccc2c1 [Example 19, 5-Bromo-3-[(6-quinolinylamino)methylidene]-1,3-dihydro-2H-pyrrolo[2,3-b]pyridin-2-one]
23 | 0.1 to 1 | 0.1 to 1 |  | NS(=O)(=O)c1ccc(NC=C2C(=O)Nc3nc(Cl)ccc32)cc1 [Example 20, 4-{[(6-Chloro-2-oxo-1,2-dihydro-3H-pyrrolo[2,3-b]pyridin-3-ylidene)methyl]amino}benzenesulfonamide]
